“Also recorded” adds a separate entry of the source.
Assays:
Type in all cases: biochemical
GRK5 = target: T1, GRK5 (Homo sapiens, UniProt P34947); assay: GRK5 kinase inhibition assay, phosphorylation of tubulin ([γ-32P]-ATP); conditions: for Selectivity GRK2/GRK5: fold selectivity for GRK5 over GRK2; for IC50: phosphorylation of the soluble substrate tubulin, ± standard deviation from 3 to 4 independent experiments
T1 construct: Human GR K5 (residues 1- 590) w ild- type and D 311N mutant w ere expressed in E. co li Rosetta; His tag (inferred from nickel-NTA purification); made in house; host or cells: E. coli Rosetta (DE3)
Method: (§1) The inhibitory potency of synthetic compounds containing the N‐heterocyclic amide functionalities was evaluated against human GRK2, GRK5 and GRK6 using our in vitro assays‐, as reported previously.^[ [35], [37] ^] […] We then investigated the effect of (R)‐ and (S)‐Boc pyrrolidine carboxamide derivatives. […] These improvements of GRK5 IC50 values over their Boc‐derivatives (6c and 6d) indicated the bulky Boc group may not be able to fit as well in the catalytic site of these GRKs. On the other hand, sterically less demanding acetamide derivatives 6e and 6f were well accommodated consistent with their very good activity against GRK5, GRK6, and GRK2, but only with marginal selectivity against GRK2. […] We also examined the effect of 3(S)‐ and 3(R)‐Boc‐pyrrolidine derivatives.
(§2) Protein expression and purification.
(§3) Human GR K5 (residues 1- 590) w ild- type and D 311N mutant w ere expressed in E. co li Rosetta (D E3) and purified v ia nickel-nitrilotriacetic acid affinity chromatography, followed by tandem columns consisting of a HiTrap Q HP anion exchange chromatography column and a HiTrap SP HP cation exchange chromatography column, and finished by Superdex 200 Increase size -exclusion chromatography, as described previously. Human GRK6 (with T10A and mutations that eliminate palmitoylation sites) was expressed in Sf9 insect cells [ 2] and was purified w ith the same protocol for GR K5 [1]. Human GRK2 w as purified as described previously.
(§4) Kinase inhibition Assays.
(§5) Inhibit ion assays were conducted in a reaction mixture containing 20 mM H EPES pH 7. 0, 2 mM MgC l2, and 0.025% n- dodecyl-β-D-maltoside. Prior to reaction initiation, GR K5 or GR K6 at 50 nM was mixed w ith porcine brain tubulin ( PurSolutions) at a concentration of 500 nM. The assay w as started w ith a 30- second incubation of inhibitors, followed by the add it ion of 5 μ M ATP supplemented w ith radioactive [γ-32P]-AT P a t 60 C i/m mol (PerkinElm er Life Sciences). Re actions pro ceeded for 5 m inut es at ro o m te mpera ture a nd were terminated by adding 4X SDS loading buffer. T he reaction mixtures were then s eparated via SDS - PAG E, dried, and exposed using a phosphor imaging screen. Quantification was performed using a Personal Molecular Imager and Quantity One 1- D Analysis Software. Analogous inhibition assays were conducted on p urified GR K2 wit h a t ub ulin conce ntrat ion of 1 μ M. Data ana lysis was perf orme d usin g Graph Pa d Pr ism, and IC50 values wer e calculated based on three- parameter dose- dependent curves (with a Hill coefficient fixed at 1) plotting phosphate transfer against inhibitor concentration. At least three replicates were conducted to determine the mean and standard deviation of IC50 values as published previously . […]
(§6) (6) The final models w ere validated with MolProbity prior to depos ition along with structure factors in the Protein Data Bank. Atomic figures were created with Py mol (7). Cr ystallographic statistics are reported in Supplemental Table 1. Coordinates for inh ib itor 6t (GRL-098- 22) w ere deposited in the Protein Data Bank, with accession code 9BR K.
(§7) 1. Y. Chen, A. Sonawane, R. Manda, R. K. G adi, J. J. G. Tesmer, A. K. Ghosh. Development of a new class of potent and highly select ive G protein- coupled r eceptor kinase 5 inhibitors and structural insight from crystal structures of inhibitor complexes. Eur. J. Med. Chem. 2024, 264, 115931.
(§8) 2. D. T. Lodowski, V. M. T esmer, J. L. Benovic, J. J. Tesmer. The structure of G protein- coupled receptor kinase (GRK)-6 defines a second lineage of GRKs. J. Bio l. C he m. 2006, 281,16785- 16793.

GRK6 = target: T2, GRK6 (Homo sapiens, UniProt P43250, C561S/C562S/C565S/T10A); assay: GRK6 kinase inhibition assay, phosphorylation of tubulin ([γ-32P]-ATP); conditions: for Selectivity GRK5/GRK6: fold selectivity for GRK6 over GRK5; for IC50: phosphorylation of the soluble substrate tubulin, ± standard deviation from 3 to 4 independent experiments
T2 construct: His tag (inferred: purified by the GRK5 protocol, which starts with nickel-NTA); made in house; host or cells: Sf9 insect cells
Method: as §1, §2, §3, §4, §5, §6, §7, §8

GRK2 = target: T3, GRK2 (Homo sapiens, UniProt P25098); assay: GRK2 kinase inhibition assay, phosphorylation of tubulin ([γ-32P]-ATP); conditions: for IC50: phosphorylation of the soluble substrate tubulin, ± standard deviation from 3 to 4 independent experiments
T3 construct: made in house
T3 sequence (P25098 1-689): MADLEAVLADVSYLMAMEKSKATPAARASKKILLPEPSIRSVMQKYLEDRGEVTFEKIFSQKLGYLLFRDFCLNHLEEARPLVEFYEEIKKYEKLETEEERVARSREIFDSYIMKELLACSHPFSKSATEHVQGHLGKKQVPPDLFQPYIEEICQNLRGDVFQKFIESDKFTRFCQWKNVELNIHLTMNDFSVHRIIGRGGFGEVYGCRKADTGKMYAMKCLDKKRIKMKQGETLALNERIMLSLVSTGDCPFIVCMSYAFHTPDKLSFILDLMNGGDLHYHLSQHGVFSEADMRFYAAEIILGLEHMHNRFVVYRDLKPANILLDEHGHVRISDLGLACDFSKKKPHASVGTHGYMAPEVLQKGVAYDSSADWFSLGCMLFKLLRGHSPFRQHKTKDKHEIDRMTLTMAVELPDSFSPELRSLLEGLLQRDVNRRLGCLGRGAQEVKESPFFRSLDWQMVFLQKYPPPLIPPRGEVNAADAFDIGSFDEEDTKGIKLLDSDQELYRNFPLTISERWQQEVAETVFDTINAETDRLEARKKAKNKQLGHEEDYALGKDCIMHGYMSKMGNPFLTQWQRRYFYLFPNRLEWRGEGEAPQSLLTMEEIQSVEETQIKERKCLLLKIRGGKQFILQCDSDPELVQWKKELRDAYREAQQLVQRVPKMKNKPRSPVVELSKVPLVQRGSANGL
Method: as §1, §2, §3, §4, §5, §6, §7, §8

T2 sequence (P43250 whole entry T10A/C561S/C562S/C565S): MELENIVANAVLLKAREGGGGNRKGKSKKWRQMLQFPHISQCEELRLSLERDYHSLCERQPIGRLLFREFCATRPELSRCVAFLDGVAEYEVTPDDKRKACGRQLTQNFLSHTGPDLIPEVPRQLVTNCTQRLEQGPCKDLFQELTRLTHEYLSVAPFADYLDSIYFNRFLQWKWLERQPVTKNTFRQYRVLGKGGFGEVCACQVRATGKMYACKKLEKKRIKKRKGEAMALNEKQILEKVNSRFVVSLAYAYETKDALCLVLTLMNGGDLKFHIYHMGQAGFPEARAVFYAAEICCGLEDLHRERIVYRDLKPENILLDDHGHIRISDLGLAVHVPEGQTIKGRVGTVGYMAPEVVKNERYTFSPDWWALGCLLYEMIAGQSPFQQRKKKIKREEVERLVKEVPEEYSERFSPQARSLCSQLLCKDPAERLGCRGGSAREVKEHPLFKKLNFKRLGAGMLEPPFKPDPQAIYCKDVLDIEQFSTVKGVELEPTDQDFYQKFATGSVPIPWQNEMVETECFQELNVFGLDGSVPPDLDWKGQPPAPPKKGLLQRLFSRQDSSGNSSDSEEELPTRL
T1 sequence (P34947 whole entry, the tested form may be a part): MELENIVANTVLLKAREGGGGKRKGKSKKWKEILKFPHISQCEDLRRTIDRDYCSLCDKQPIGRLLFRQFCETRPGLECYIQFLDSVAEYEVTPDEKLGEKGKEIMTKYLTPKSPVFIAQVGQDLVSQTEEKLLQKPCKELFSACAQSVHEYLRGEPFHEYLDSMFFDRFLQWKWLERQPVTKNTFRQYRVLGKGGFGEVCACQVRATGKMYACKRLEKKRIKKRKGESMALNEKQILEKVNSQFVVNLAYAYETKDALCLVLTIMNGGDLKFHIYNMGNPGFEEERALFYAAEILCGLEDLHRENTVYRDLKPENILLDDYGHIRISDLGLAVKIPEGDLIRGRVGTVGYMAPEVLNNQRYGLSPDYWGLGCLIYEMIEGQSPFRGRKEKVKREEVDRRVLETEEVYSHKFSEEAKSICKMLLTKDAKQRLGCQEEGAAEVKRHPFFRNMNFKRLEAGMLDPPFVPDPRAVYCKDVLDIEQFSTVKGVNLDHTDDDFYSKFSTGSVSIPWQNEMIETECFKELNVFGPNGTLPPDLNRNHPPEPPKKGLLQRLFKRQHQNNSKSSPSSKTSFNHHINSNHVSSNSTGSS

For `Cc1[nH]c(/C=C2\C(=O)Nc3ccc(C(=O)N[C@H](C)c4ccc(F)cc4)cc32)c(C)c1NC(=O)[C@H]1CCCN(C(=O)OC(C)(C)C)C1` [6o, Tert‐Butyl(S)‐3‐((5‐(((Z)‐5‐(((R)‐1‐(4‐Fluorophenyl)Ethyl)Carbamoyl)‐2‐Oxoindolin‐3‐Ylidene)Methyl)‐2,4‐Dimethyl‐1H‐Pyrrol‐3‐Yl)Carbamoyl)Piperidine‐1‐Carboxylate], the “Selectivity GRK2/GRK5” value (GRK5) was 66 fold, the IC50 (GRK5) was 0.094 ± 0.01 µM and the “Selectivity GRK5/GRK6” value (GRK6) was 1 fold. The IC50 (GRK6) was 0.15 ± 0.06 µM and the IC50 (GRK2) was 6.2 ± 3 µM.

For `Cc1[nH]c(C=C2C(=O)Nc3ccc(C(=O)NC(C)c4ccc(F)cc4)cc32)c(C)c1NC(=O)C1C=CCN1C(=O)OC(C)(C)C` [6i, Tert‐Butyl(S)‐2‐((5‐(((Z)‐5‐(((R)‐1‐(4‐Fluorophenyl)Ethyl)Carbamoyl)‐2‐Oxoindolin‐3‐yl‐ Idene)Methyl)‐2,4‐Dimethyl‐1H‐Pyrrol‐3‐Yl)Carbamoyl)‐2,5‐Dihydro‐1H‐Pyrrole‐1‐Carboxylate], the “GRK5 IC50 (in words)” value (GRK5) was “sub‐micromolar; also recorded: low micromolar range”, the “Selectivity GRK2/GRK5” value (GRK5) was 130 fold and the IC50 (GRK5) was 0.92 ± 0.5 µM. The “GRK6 IC50 (in words)” value (GRK6) was “sub‐micromolar; also recorded: low micromolar range”, the “Selectivity GRK5/GRK6” value (GRK6) was 2 fold and the IC50 (GRK6) was 0.5 ± 0.2 µM. The “activity against GRK2 (in words)” value (GRK2) was “little to no activity” and the IC50 (GRK2) was 120 ± 50 µM.

`Cc1[nH]c(/C=C2\C(=O)Nc3ccc(C(=O)N[C@H](C)c4ccc(F)cc4)cc32)c(C)c1NC(=O)[C@H]1CCCCN1C(=O)OC(C)(C)C` [6m, Tert‐Butyl(R)‐2‐((5‐(((Z)‐5‐(((R)‐1‐(4‐Fluorophenyl)Ethyl)Carbamoyl)‐2‐Oxoindolin‐3‐Ylidene)Methyl)‐2,4‐Dimethyl‐1H‐Pyrrol‐3‐Yl)Carbamoyl)Piperidine‐1‐Carboxylate] was tested, and the “Selectivity GRK2/GRK5” value (GRK5) was 2 fold, the IC50 (GRK5) was 0.5 ± 0.1 µM and the IC50 (GRK6) was 2.5 ± 0.4 µM. The IC50 (GRK2) was 1.2 ± 0.4 µM.

In the case of `Cc1[nH]c(/C=C2\C(=O)Nc3ccc(C(=O)N[C@H](C)c4ccc(F)cc4)cc32)c(C)c1NC(=O)[C@@H]1CN(C(=O)OC(C)(C)C)CCN1` [6t, Tert‐Butyl(S)‐3‐((5‐(((Z)‐5‐(((R)‐1‐(4‐Fluorophenyl)Ethyl)Carbamoyl)‐2‐Oxoindolin‐3‐Ylidene)Methyl)‐2,4‐Dimethyl‐1H‐Pyrrol‐3‐Yl)Carbamoyl)Piperazine‐1‐Carboxylate], the “Selectivity GRK2/GRK5” value (GRK5) is reported as >1600 fold, the IC50 (GRK5) is reported as 0.6 ± 0.1 µM and the “Selectivity GRK5/GRK6” value (GRK6) is reported as 7 fold. For the same compound, the IC50 (GRK6) was 0.09 µM and the IC50 (GRK2) was > 1000 µM.

`Cc1[nH]c(/C=C2\C(=O)Nc3ccc(C(=O)N[C@H](C)c4ccc(F)cc4)cc32)c(C)c1NC(=O)[C@@H]1CCCN(C(=O)OC(C)(C)C)C1` [6p, Tert‐Butyl(R)‐3‐((5‐(((Z)‐5‐(((R)‐1‐(4‐Fluorophenyl)Ethyl)Carbamoyl)‐2‐Oxoindolin‐3‐Ylidene)Methyl)‐2,4‐Dimethyl‐1H‐Pyrrol‐3‐Yl)Carbamoyl)Piperidine‐1‐Carboxylate] was tested, and the “selectivity over GRK2” value (GRK5; GRK5 vs GRK2, as stated in text) was “over 1500 fold”, the “Selectivity GRK2/GRK5” value (GRK5) was 1500 fold and the IC50 (GRK5) was 0.41 ± 0.1 µM. For the same compound, the “Selectivity GRK5/GRK6” value (GRK6) was 1 fold, the IC50 (GRK6) was 0.34 ± 0.3 µM and the IC50 (GRK2) was 610 ± 450 µM.

`CC(=O)N1CCCC1C(=O)Nc1c(C)[nH]c(C=C2C(=O)Nc3ccc(C(=O)NC(C)c4ccc(F)cc4)cc32)c1C` [6f, ((Z)‐3‐((4‐((S)‐1‐Acetylpyrrolidine‐2‐Carboxamido)‐3,5‐Dimethyl‐1H‐Pyrrol‐2‐Yl)Methylene)‐N‐((R)‐1‐(4‐Fluorophenyl)Ethyl)‐2‐Oxoindoline‐5‐Carboxamide] was tested, and the “Selectivity GRK2/GRK5” value (GRK5) was 15 fold, the IC50 (GRK5) was 0.06 ± 0.02 µM and the “Selectivity GRK5/GRK6” value (GRK6) was 2 fold. For the same compound, the IC50 (GRK6) was 0.031 ± 0.02 µM and the IC50 (GRK2) was 0.9 ± 0.3 µM.

In the case of `Cc1[nH]c(/C=C2\C(=O)Nc3ccc(C(=O)N[C@H](C)c4ccc(F)cc4)cc32)c(C)c1NC(=O)[C@@H]1CCCNC1` [6r, (Z)‐3‐((3,5‐Dimethyl‐4‐((R)‐Piperidine‐3‐Carboxamido)‐1H‐Pyrrol‐2‐Yl)Methylene)‐N‐((R)‐1‐(4‐Fluorophenyl)Ethyl)‐2‐Oxoindoline‐5‐Carboxamide], the “Selectivity GRK2/GRK5” value (GRK5) is reported as 20 fold, the IC50 (GRK5) is reported as 0.03 ± 0.002 µM and the “Selectivity GRK5/GRK6” value (GRK6) is reported as 1 fold. It also gave an IC50 (GRK6) of 0.06 ± 0.02 µM and an IC50 (GRK2) of 0.62 ± 0.3 µM.

`Cc1[nH]c(/C=C2\C(=O)Nc3ccc(C(=O)N[C@H](C)c4ccc(F)cc4)cc32)c(C)c1NC(=O)[C@@H]1CCN(C(=O)OC(C)(C)C)C1` [6k, Tert‐Butyl(R)‐3‐((5‐(((Z)‐5‐(((R)‐1‐(4‐Fluorophenyl)Ethyl)Carbamoyl)‐2‐Oxoindolin‐3‐Ylidene)Methyl)‐2,4‐Dimethyl‐1H‐Pyrrol‐3‐Yl)Carbamoyl)Pyrrolidine‐1‐Carboxylate] was tested, and the “GRK5 IC50 (in words)” value (GRK5) was “low micromolar range”, the “Selectivity GRK2/GRK5” value (GRK5) was 140 fold and the IC50 (GRK5) was 2.1 ± 0.9 µM. The “GRK6 IC50 (in words)” value (GRK6) was “low micromolar range”, the “Selectivity GRK5/GRK6” value (GRK6) was 1 fold and the IC50 (GRK6) was 1.4 ± 0.2 µM. For the same compound, the “activity against GRK2 (in words)” value (GRK2) was “little to no activity” and the IC50 (GRK2) was 300 ± 100 µM.

In the case of `Cc1[nH]c(/C=C2\C(=O)Nc3ccc(C(=O)N[C@H](C)c4ccc(F)cc4)cc32)c(C)c1NC(=O)[C@H]1CNCCN1` [6u, (Z)‐3‐((3,5‐Dimethyl‐4‐((R)‐Piperazine‐2‐Carboxamido)‐1 H‐Pyrrol‐2‐Yl)Methylene)‐N‐((R)‐1‐(4‐Fluorophenyl)Ethyl)‐2‐Oxoindoline‐5‐Carboxamide], the “Selectivity GRK2/GRK5” value (GRK5) is reported as 15 fold, the IC50 (GRK5) is reported as 0.014 ± 0.001 µM and the IC50 (GRK6) is reported as 0.05 µM. It also gave an IC50 (GRK2) of 0.21 ± 0.1 µM.

For `Cc1[nH]c(/C=C2\C(=O)Nc3ccc(C(=O)N[C@H](C)c4ccc(F)cc4)cc32)c(C)c1NC(=O)[C@H]1CN(C(=O)OC(C)(C)C)CCN1` [6s, Tert‐Butyl(R)‐3‐((5‐(((Z)‐5‐(((R)‐1‐(4‐Fluorophenyl)Ethyl)Carbamoyl)‐2‐Oxoindolin‐3‐Ylidene)Methyl)‐2,4‐Dimethyl‐1H‐Pyrrol‐3‐Yl)Carbamoyl)Piperazine‐1‐Carboxylate], the “Selectivity GRK2/GRK5” value (GRK5) was 430 fold, the IC50 (GRK5) was 0.081 ± 0.01 µM and the “Selectivity GRK5/GRK6” value (GRK6) was 1 fold. For the same compound, the IC50 (GRK6) was 0.06 ± 0.02 µM and the IC50 (GRK2) was 35 ± 9.4 µM.

`Cc1[nH]c(/C=C2\C(=O)Nc3ccc(C(=O)N[C@H](C)c4ccc(F)cc4)cc32)c(C)c1NC(=O)[C@@H]1CCC(=O)N1` [6a, (Z)‐3‐((3,5‐Dimethyl‐4‐((S)‐5‐Oxopyrrolidine‐2‐Carboxamido)‐1H‐Pyrrol‐2‐Yl)Methylene)‐N‐((R)‐1‐(4‐Fluorophenyl)Ethyl)‐2‐Oxoindoline‐5‐Carboxamide] was tested, and the “Selectivity GRK2/GRK5” value (GRK5) was 26 fold, the IC50 (GRK5) was 0.027 ± 0.006 µM and the “Selectivity GRK5/GRK6” value (GRK6) was 1 fold. It also gave an IC50 (GRK6) of 0.02 ± 0.01 µM and an IC50 (GRK2) of 0.71 ± 0.4 µM.
